Measured values from patent publication US6864219B2, “Substituted aryl ketones” (Bayer Aktiengesellschaft, priority 2000, dated 2005).

How the values were obtained:
[1] = log P determination by HPLC on reversed-phase column (C 18), EEC Directive 79/831 V.A8; type: physicochemical; conditions: for logP (Physical data, Table 1): labelled a): acidic range, 0.1% aqueous phosphoric acid/acetonitrile gradient, 43° C.
Method: The log P values given in Table 1 were determined in accordance with EEC Directive 79/831 V.A8 by HPLC (High Performance Liquid Chromatography) on a reversed-phase column (C 18). Temperature: 43° C.
(a) Mobile phases for the determination in the acidic range: 0.1% aqueous phosphoric acid, acetonitrile; linear gradient of 10% acetonitrile to 90% acetonitrile—the corresponding data in Table 1 are labelled ^a).
(b) Mobile phases for the determination in the neutral range: 0.01 molar aqueous phosphate buffer solution, acetonitrile, linear gradient from 10% acetonitrile to 90% acetonitrile—the corresponding data in Table 1 are labelled ^b).

[2] = test system: weeds; assay: Pre-emergence test (Example A), activity against weeds; type: in vivo; conditions: soil sprayed 24 hours after sowing; damage rated after three weeks
Method: (§1) To produce a suitable preparation of active compound, 1 part by weight of active compound is mixed with the stated amount of solvent, the stated amount of emulsifier is added and the concentrate is diluted with water to the desired concentration.
Seeds of the test plants are sown in normal soil. After 24 hours, the soil is sprayed with the preparation of active compound such that the particular amount of active compound desired is applied per unit area. The concentration of active compound in the spray liquor is chosen such that the particular amount of active compound desired is applied in 1000 liters of water per hectare.
After three weeks, the degree of damage to the plants is rated in % damage in comparison to the development of the untreated control. The figures denote: • 0%=no effect (like untreated control) • 100%=total destruction

[3] = test system: weeds; assay: Post-emergence test (Example B), activity against weeds; type: in vivo; conditions: test plants 5-15 cm sprayed; damage rated after three weeks
Method: as §1
Test plants with a height of 5-15 cm are sprayed with the preparation of active compound such that the particular amounts of active compound desired are applied per unit area. The concentration of the spray liquor is chosen so that the particular amounts of active compound desired are applied in 1000 l of water/ha.
After three weeks, the degree of damage to the plants is rated in % damage in comparison to the development of the untreated control.
The figures denote: • 0%=no effect (like untreated control) • 100%=total destruction

SMILES	chromatographic logP ([1]; reversed-phase HPLC column (C 18), mobile-phase label not given, read-out: Log P (preparation examples))	activity against weeds, pre-emergence [2]	activity against weeds, post-emergence [3]	logP (Physical data, Table 1) [1]
CCOc1nn(COc2c(Cl)ccc(C(=O)C3C(=O)CCCC3=O)c2Cl)c(=O)n1C [Example 2, 2-[3-(3′-ethoxy-4′-methyl-1′,2′,4′-1H-triazolin-5′-on-1′-yl)-methoxy-2,4-dichloro-benzoyl]-1,3-cyclohexanedione]	2.52	strong activity	strong activity	–
O=C1CCCC(O)=C1C(=O)c1ccc(Cl)c(OCn2ccccc2=O)c1Cl [Example 3]	–	strong activity	strong activity	logP = 2.04^a)
Cc1nn(CCOc2c(Cl)ccc(C(=O)C3=C(O)CCCC3=O)c2Cl)c(=O)n1C [Example 4]	–	strong activity	strong activity	logP = 1.92^a)
CCn1ncc(C(=O)c2ccc(Cl)c(OCCn3nc(C)n(C)c3=O)c2Cl)c1O [Example 5]	–	strong activity	strong activity	logP = 1.52^a)
Cc1c(C(=O)C2=C(O)CCCC2=O)ccc(Cl)c1OCCn1nc(C)n(C)c1=O [Example 6]	–	strong activity	strong activity	logP = 1.93^a)
CCn1ncc(C(=O)c2ccc(Cl)c(OCCn3nc(C)n(C)c3=O)c2C)c1O [Example 7]	–	strong activity	strong activity	logP = 1.68^a)
CSc1ccc(C(=O)C2=C(O)CCCC2=O)c(Cl)c1OCCn1nc(C)n(C)c1=O [Example 8]	–	strong activity	strong activity	logP = 1.94^a)
CCn1ncc(C(=O)c2ccc(SC)c(OCCn3nc(C)n(C)c3=O)c2Cl)c1O [Example 9]	–	strong activity	strong activity	logP = 1.58^a)
CSc1ccc(C(=O)C2=C(O)CCCC2=O)c(C)c1OCCn1nc(C)n(C)c1=O [Example 10]	–	strong activity	strong activity	logP = 1.91^a)
Cc1nn(CCOc2c(S(C)(=O)=O)ccc(C(=O)C3=C(O)CCCC3=O)c2Cl)c(=O)n1C [Example 11]	–	strong activity	strong activity	logP = 1.65^a)
